Experimental data: US20150342954A1, “2-BENZYL, 3-(PYRIMIDIN-2-YL) SUBSTITUTED PYRAZOLES USEFUL AS SGC STIMULATORS” (IRONWOOD PHARMACEUTICALS, INC., priority 2011, published 2015)
Like-named read-outs stand apart in the source and are kept apart here.

Key:
[1] = target: T1, soluble guanylate cyclase (sGC) (Homo sapiens, UniProt Q02108+Q02153); experiment: sGC-HEK-cGMP assay (run with SNP incubation); assay type: cell-based; conditions: for Emax: 10 μM SNP, 100% = 30 μM BAY 41-2272 with 10 μM SNP, read-out: HEK assay Emax-unconstrained (Percent); for HEK MEC-10: concentration that would elicit 10% of the Emax in the presence of 10 μM SNP; for EC50: in the presence of 10 μM SNP
T1 construct: endogenously expressing soluble guanylate cyclase (sGC); endogenous in cells; host or cells: HEK293
T1 sequence (Q02153 1-619): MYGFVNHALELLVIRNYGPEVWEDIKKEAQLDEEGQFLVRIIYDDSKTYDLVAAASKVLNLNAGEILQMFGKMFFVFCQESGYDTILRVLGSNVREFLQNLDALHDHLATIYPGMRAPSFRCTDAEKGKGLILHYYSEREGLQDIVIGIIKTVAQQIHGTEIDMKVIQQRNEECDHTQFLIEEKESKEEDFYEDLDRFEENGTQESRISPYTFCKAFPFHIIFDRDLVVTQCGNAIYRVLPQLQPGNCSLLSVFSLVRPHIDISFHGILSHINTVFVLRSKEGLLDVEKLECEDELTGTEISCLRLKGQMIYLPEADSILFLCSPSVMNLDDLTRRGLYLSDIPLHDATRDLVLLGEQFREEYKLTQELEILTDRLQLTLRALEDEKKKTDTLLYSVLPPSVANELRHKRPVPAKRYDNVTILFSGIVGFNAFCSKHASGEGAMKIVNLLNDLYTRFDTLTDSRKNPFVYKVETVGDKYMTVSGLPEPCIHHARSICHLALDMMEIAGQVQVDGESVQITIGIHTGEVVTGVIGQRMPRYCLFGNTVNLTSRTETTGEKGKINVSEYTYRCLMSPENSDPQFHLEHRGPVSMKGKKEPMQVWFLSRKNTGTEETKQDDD
T1 sequence (Q02108 1-690): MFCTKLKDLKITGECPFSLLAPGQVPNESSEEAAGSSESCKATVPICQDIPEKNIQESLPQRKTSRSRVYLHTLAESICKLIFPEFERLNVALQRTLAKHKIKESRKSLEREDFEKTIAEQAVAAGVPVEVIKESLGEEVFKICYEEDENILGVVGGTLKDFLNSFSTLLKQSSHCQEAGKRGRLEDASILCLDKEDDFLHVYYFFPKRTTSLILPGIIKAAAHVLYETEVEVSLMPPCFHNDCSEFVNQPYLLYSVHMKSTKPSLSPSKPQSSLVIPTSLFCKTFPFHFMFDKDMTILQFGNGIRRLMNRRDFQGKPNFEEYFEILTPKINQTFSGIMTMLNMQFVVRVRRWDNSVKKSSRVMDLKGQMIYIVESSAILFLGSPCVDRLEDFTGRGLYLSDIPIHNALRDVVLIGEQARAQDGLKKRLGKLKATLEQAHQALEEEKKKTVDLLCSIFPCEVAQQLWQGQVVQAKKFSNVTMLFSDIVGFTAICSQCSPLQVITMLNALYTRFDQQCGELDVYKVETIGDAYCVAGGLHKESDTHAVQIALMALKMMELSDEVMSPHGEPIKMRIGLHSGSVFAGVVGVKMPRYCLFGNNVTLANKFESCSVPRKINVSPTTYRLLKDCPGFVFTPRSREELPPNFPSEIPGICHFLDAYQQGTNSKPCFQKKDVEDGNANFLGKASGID
Method in brief: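 HEK293 cells with endogenous sGC were pre-treated 15 min at 37 °C with 0.5 mM IBMX, then exposed to test compound plus sodium nitroprusside for 10 min at 37 °C. Cells were lysed in 0.1 M HCl (4 °C, 30 min), and cGMP was quantified by LC/MS against a standard curve. EC50 values came from concentration-response curves.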

[2] = target: T2, Human soluble guanylate cyclase enzyme (hsGC) (Homo sapiens, UniProt Q02108+Q02153); experiment: Purified human sGC enzyme activity assay (without SNP); assay type: biochemical; conditions: compound at 30 μM, absence of SNP, fold over DMSO control
T2 construct: purchased Enzo Inc. ALX-201-177
T2 sequence (Q02153 1-619): T1 sequence (Q02153 1-619)
T2 sequence (Q02108 1-690): T1 sequence (Q02108 1-690)
Method in brief: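 Purified human sGC (5 ng) in 0.1 M Tris pH 8.0, 2 mM DTT, 2 mM MgCl2, 300 μM GTP, 1 mM IBMX, with compound at 10 or 30 μM final, 30 min at 37° C.; methanol-stopped. cGMP quantified against a standard curve; specific activity expressed as fold-change over DMSO control.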

[3] = target: T2, Human soluble guanylate cyclase enzyme (hsGC); experiment: Purified human sGC enzyme synergy assay in the presence of 1 μM sodium nitroprusside (SNP); assay type: biochemical; conditions: compound at 30 μM, presence of 1 μM SNP
Method in brief: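 Purified hsGC (5 ng) incubated 30 min at 37 °C with compound (10 or 30 μM final) in Tris pH 8.0, 300 μM GTP, 1 mM IBMX, 2 mM MgCl2, with or without 1 μM SNP; stopped with cold methanol. cGMP quantified against standard curve; specific activity expressed as fold-change over DMSO control.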

[4] = Table 3C, top of concentration-response curve not fitted to 100%
[5] = Table 3F, read-out: HEK assay EC50
[6] = top of concentration-response curve not fitted to 100%, Table 3F, read-out: HEK assay EC50-unconstrained
[7] = Table 3B, top of concentration-response curve not fitted to 100%
[8] = Table 3E, read-out: HEK assay EC50
[9] = top of concentration-response curve not fitted to 100%, Table 3E, read-out: HEK assay EC50-unconstrained
[10] = Table 3A, top of concentration-response curve not fitted to 100%
[11] = Table 3D, read-out: HEK assay EC50
[12] = top of concentration-response curve not fitted to 100%, Table 3D, read-out: HEK assay EC50-unconstrained

| Emax [1, 7] [%] | HEK MEC-10 ([1]; Table 3E) | EC50 [1, 8] [µM] | EC50 [1, 9] [µM] | Enzyme Activity (increase at 30 μM without SNP) ([2]; Table 5B) | Enzyme Activity (increase at 30 μM with SNP) ([3]; Table 5B) | Emax [1, 10] [%] | HEK MEC-10 ([1]; Table 3D) | EC50 [1, 11] [µM] | EC50 [1, 12] [µM] | Enzyme Activity (increase at 30 μM without SNP) ([2]; Table 5A) | Enzyme Activity (increase at 30 μM with SNP) ([3]; Table 5A) | Compound | further results |
| --- | --- | --- | --- | --- | --- | --- | --- | --- | --- | --- | --- | --- | --- |
| – | – | – | – | – | – | – | – | – | – | – | – | Cn1cnc2nc(-c3cc(-c4ccon4)n(Cc4ccccc4F)n3)ncc21 [Compound 109] | Emax [1, 4]: 40 to 60%; HEK MEC-10 ([1]; Table 3F): D (1 to <10 μM); EC50 [1, 5]: 40 to 60 µM; EC50 [1, 6]: 10 to 50 µM; Enzyme Activity (increase at 30 μM without SNP) ([2]; Table 5C): B (2 to <5 fold increase); Enzyme Activity (increase at 30 μM with SNP) ([3]; Table 5C): B (2 to <5 fold increase) |
| 80 to 100 | A (0.001 to <0.01 μM) | 60 to 100 | 0.5 to 1 | B (2 to <5 fold increase) | D (10 or <20 fold increase) | – | – | – | – | – | – | Nc1nc(-c2cc(-c3ccon3)n(Cc3ccccc3F)n2)ncc1NC(=O)C1(N)CC1 [Compound 69] | – |
| – | – | – | – | – | – | 100 to 120 | C (0.1 to <1 μM) | < 20 | 1 to 5 | C (5 to <10 fold increase) | F (>30 fold increase) | CC1(C(=O)Nc2cnc(-c3cc(-c4ncco4)n(Cc4ccccc4F)n3)nc2N)CC1(F)F (stereo not drawn) [Compound 55] | – |
| 40 to 60 | C (0.1 to <1 μM) | 40 to 60 | 1 to 5 | B (2 to <5 fold increase) | C (5 to <10 fold increase) | – | – | – | – | – | – | N#Cc1cc(-c2ncc(F)c(=O)[nH]2)nn1Cc1ccccc1F [Compound 74] | – |
| – | – | – | – | – | – | – | – | – | – | – | – | CC(=O)Nc1n[nH]c2nc(-c3cc(-c4ccon4)n(Cc4ccccc4F)n3)ncc12 [Compound 114] | Emax [1, 4]: 60 to 80%; HEK MEC-10 ([1]; Table 3F): A (0.001 to <0.01 μM); EC50 [1, 5]: < 20 µM; EC50 [1, 6]: 0.01 to 0.5 µM; Enzyme Activity (increase at 30 μM without SNP) ([2]; Table 5C): D (10 or <20 fold increase); Enzyme Activity (increase at 30 μM with SNP) ([3]; Table 5C): E (20 to 30 fold increase) |
| 40 to 60 | C (0.1 to <1 μM) | 40 to 60 | 0.01 to 0.5 | C (5 to <10 fold increase) | D (10 or <20 fold increase) | – | – | – | – | – | – | O=c1[nH]c(-c2cc(-c3ccon3)n(Cc3ccc(F)cc3F)n2)ncc1F [Compound 70] | – |
| – | – | – | – | – | – | 100 to 120 | A (0.001 to <0.01 μM) | < 20 | 0.01 to 0.5 | D (10 or <20 fold increase) | E (20 to 30 fold increase) | Oc1nc(-c2cc(-c3ccon3)n(Cc3ccccc3F)n2)ncc1Sc1ccccc1 [Compound 39, 2-(1-(2-fluorobenzyl)-5-(isoxazol-3-yl)-1H-pyrazol-3-yl)-5-(phenylthio)pyrimidin-4-ol] | – |
| – | – | – | – | – | – | 60 to 80 | B (0.01 to <0.1 μM) | < 20 | 0.5 to 1 | C (5 to <10 fold increase) | D (10 or <20 fold increase) | NNc1nc(-c2cc(-c3ccon3)n(Cc3ccccc3F)n2)ncc1F [Compound 56] | – |
| 40 to 60 | C (0.1 to <1 μM) | 40 to 60 | 1 to 5 | B (2 to <5 fold increase) | C (5 to <10 fold increase) | – | – | – | – | – | – | O=c1[nH]c(-c2cc(-c3ncon3)n(Cc3cc(F)ccc3F)n2)ncc1F [Compound 75] | – |
| – | – | – | – | – | – | 40 to 60 | C (0.1 to <1 μM) | < 20 | 0.5 to 1 | B (2 to <5 fold increase) | D (10 or <20 fold increase) | Oc1nc(-c2cc(-c3ccon3)n(Cc3ccccc3F)n2)ncc1-c1nccs1 [Compound 42] | – |
| 60 to 80 | C (0.1 to <1 μM) | 60 to 100 | 0.01 to 0.5 | C (5 to <10 fold increase) | E (20 to 30 fold increase) | – | – | – | – | – | – | O=c1[nH]c(-c2cc(-c3ccon3)n(Cc3cccc(Cl)c3F)n2)ncc1F [Compound 77] | – |
